What follows are molecules tested against GIRK1/4 (Homo sapiens (Human), UniProt P48544+P48549) (assay: GIRK1/4 inhibition, Quattro (IonWorks) population patch clamp, inward potassium current in GIRK 1/4 HEK293 stable cells (test assay No. 1)). Conditions: percentage of current inhibition normalized to DMSO-only control.
Format: cell-based
Description: The activity of a compound according to the present invention can be assessed by the following in vitro method. • 1. Buffers: • a. External buffer: 10 mM NaCl, 50 mM Na Gluconate, 80 mM K Gluconate, 1.8 mM CaCl2, 1 mM MgCl2, 10 mM HEPES, 10 mM Glucose, pH 7.4; osmolality […]. • b. Internal buffer: 30 mM KCl, 100 mM K Gluconate, 1 mM MgCl2, 10 mM HEPES, 1 mM EGTA, 10 mM NaCl, pH 7.2; osmolality […]. • 2. Compounds: • a. Prepare seven-fold compound dilution series (10 mM to 20 uM) in 100% DMSO, in 384-well polypropylene plates. • b. Propafenone (Sigma Aldrich, catalog number P4670) is used as a positive control and DMSO for neutral control • c. Resuspend 1 ul of compounds in DMSO into 65.7 ul external buffer in 384-well polypropylene plate and load into Plate 1 section of Molecular Devices Quattro • 3. Quattro setup: • a. Load 384-well Population Patch Plate (Molecular Devices #9000-0902) into Quattro • b. Fill Quattro F-soak trough with 20% DMSO and 50% EtOH • c. Fill Quattro buffer trough with external buffer • d. Attach internal buffer flask to Quattro internal buffer tubing • e. Attach PBS (Phosphate Buffered Saline, minus Ca^++ and Mg^++, pH7.4) bottle to F-head & E-head wash on Quattro • 4. Antibiotic: • a. Resuspend 5.6 mg amphotericin B (Sigma Aldrich, catalog number A2411) in 175 ul DMSO • b. Add the resulting solution to 50 ml internal buffer, mix and attach to antibiotic tubing port on Quattro • 5. Cells: • a. Use GIRK 1/4 HEK293 stable cells (obtained from ChanTest, 14656 Neo Parkway, Cleveland, Ohio 44128) grown to […] confluency in the following cell culture medium: DMEM containing 10% (v/v) Fetal Bovine Serum, Penicillin/Streptomycin (at “1×” concentration from a 100× stock), 0.5 mg/ml G418 and 0.1 mg/ml Zeocin. • b. Wash cells with PBS (minus Ca^++ and Mg^++), Detach cells using Detachin (Genlantis, 11011 Torreyana, San Diego, Calif. 92121), and resuspend in external buffer (5 ml final volume at 2.0-2.1×10^6 cells/ml) • c. Load into cell trough of Quattro • 6. Assay Protocol: • Quattro is controlled using IonWorks v2 software to perform the following steps: • a. Add 3.5 ul cells plus 3.5 ul external buffer to wells of Quattro Patch Plate • b. Circulate amphotericin B and internal buffer onto cells • c. Apply the following voltage protocol: Pulse 1: 15 mV for 300 milliseconds (ms), followed by Pulse 2: −120 mV for 400 ms, then Pulse 3: −15 mV for 400 ms, and finally Pulse 4: −120 mV to 40 mV over 500 ms (this is a voltage ramp). • d. Measure magnitude of inward potassium current at time point between 1200-1220 ms from start of Pulse 1 (i.e. during the voltage ramp phase). • e. Add 3.5 ul of diluted compounds (or DMSO) to wells and repeat steps c-d (final compound concentrations are 50 uM to 0.1 uM, for potent compounds 0.5 uM to 0.01 uM and each concentration is tested in quadruplicate—i.e. in 4 separate wells). • f. The difference between current magnitude pre vs. post-compound gives a measure of GIRK1/4 inhibition. • 7. Data analysis:
IC50 values are calculated by plotting the percentage of current inhibition (normalized to the DMSO-only control) as a function of compound concentration using standard data analysis software.

Chain of GIRK1/4 (P48549 whole entry): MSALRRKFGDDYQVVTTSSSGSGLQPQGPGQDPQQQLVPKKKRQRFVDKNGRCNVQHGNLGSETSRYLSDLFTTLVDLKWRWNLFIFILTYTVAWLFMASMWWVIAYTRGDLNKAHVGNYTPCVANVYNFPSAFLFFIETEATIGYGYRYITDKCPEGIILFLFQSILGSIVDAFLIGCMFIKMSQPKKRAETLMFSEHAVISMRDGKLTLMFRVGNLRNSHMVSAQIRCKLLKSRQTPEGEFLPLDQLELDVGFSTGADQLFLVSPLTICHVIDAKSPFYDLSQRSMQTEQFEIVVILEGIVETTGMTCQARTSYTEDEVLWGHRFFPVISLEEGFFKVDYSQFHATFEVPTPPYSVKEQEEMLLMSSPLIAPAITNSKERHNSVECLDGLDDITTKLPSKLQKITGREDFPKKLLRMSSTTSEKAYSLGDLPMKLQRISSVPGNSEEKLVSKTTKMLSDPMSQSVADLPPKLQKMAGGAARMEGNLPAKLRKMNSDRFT
Chain of GIRK1/4 (P48544 whole entry): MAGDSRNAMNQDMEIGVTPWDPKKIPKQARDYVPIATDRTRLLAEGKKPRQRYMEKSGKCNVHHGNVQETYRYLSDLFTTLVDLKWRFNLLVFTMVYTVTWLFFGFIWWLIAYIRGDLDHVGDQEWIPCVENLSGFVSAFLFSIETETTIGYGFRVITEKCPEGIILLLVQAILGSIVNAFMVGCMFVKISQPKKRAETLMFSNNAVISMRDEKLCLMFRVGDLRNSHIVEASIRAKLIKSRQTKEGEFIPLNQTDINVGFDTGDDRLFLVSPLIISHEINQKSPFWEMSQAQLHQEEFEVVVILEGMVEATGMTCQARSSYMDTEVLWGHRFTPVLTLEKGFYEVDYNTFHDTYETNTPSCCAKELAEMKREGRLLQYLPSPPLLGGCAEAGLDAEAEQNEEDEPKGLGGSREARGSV

Structure (SMILES)	IC50
O=c1cc(CO)n(-c2c(Cl)cccc2Cl)c2c(Cl)cnc(C(O)CO)c12 (single isomer, unassigned) [Example 84, 8-Chloro-1-(2,6-dichlorophenyl)-5-(1,2-dihydroxyethyl)-2-(hydroxymethyl)-1,6-naphthyridin-4(1H)-one]	0.116 µM
O=c1cc(CO)n(-c2c(Cl)cccc2Cl)c2c(Cl)cnc(OCC3COC3)c12 [Example 10, 8-chloro-1-(2,6-dichlorophenyl)-2-(hydroxymethyl)-5-(oxetan-3-ylmethoxy)-1,6-naphthyridin-4(1H)-one]	0.12 µM
O=c1cc(CO)n(-c2c(Cl)cc(F)cc2Cl)c2c(Cl)cnc(OCCO)c12 [Example 61, 8-Chloro-1-(2,6-dichloro-4-fluorophenyl)-5-(2-hydroxyethoxy)-2-(hydroxymethyl)-1,6-naphthyridin-4(1H)-one]	0.068 µM
O=c1cc(CO)n(-c2c(Cl)cccc2Cl)c2c(Cl)cnc(OC[C@@H](O)CO)c12 [Example 1, (S)-8-Chloro-1-(2,6-dichlorophenyl)-5-(2,3-dihydroxpropoxy)-2-(hydroxymethyl)-1,6-naphthyridin-4(1H)-one]	0.104 µM
O=c1cc(CO)n(-c2c(Cl)cccc2Cl)c2c(Cl)cnc(CCC(O)CO)c12 (single isomer, unassigned) [Example 77, 8-chloro-1-(2,6-dichlorophenyl)-5-(3,4-dihydroxybutyl)-2-(hydroxymethyl)-1,6-naphthyridin-4(1H)-one]	0.366 µM
N#Cc1cccc(Cl)c1-n1c(C2CC2)cc(=O)c2c(OCC(O)CO)ncc(Cl)c21 (centres unmarked) [Example 55, 3-chloro-2-(8-chloro-2-cyclopropyl-5-(2,3-dihydroxypropoxy)-4-oxo-1,6-naphthyridin-1(4H)-yl)benzonitrile]	0.054 µM
Cc1cc(=O)c2c(NOCCO)ncc(Cl)c2n1-c1c(Cl)cc(C#N)cc1Cl [Example 44, 3,5-dichloro-4-(8-chloro-5-((2-hydroxyethoxy)amino)-2-methyl-4-oxo-1,6-naphthyridin-1(4H)-yl)benzonitrile]	0.056 µM
Cc1cc(=O)c2c(OCCO)ncc(Cl)c2n1-c1c(Cl)cc(C#CCN2CCOCC2)cc1Cl [Example 91, 8-Chloro-1-(2,6-dichloro-4-(3-morpholinoprop-1-yn-1-yl)phenyl)-5-(2-hydroxyethoxy)-2-methyl-1,6-naphthyridin-4(1H)-one]	0.04 µM
O=c1cc(C(F)F)n(-c2c(Cl)cccc2Cl)c2c(Cl)cnc(OCC(O)CO)c12 (centres unmarked) [Example 62, 8-Chloro-1-(2,6-dichlorophenyl)-2-(difluoromethyl)-5-(2,3-dihydroxypropoxy)-1,6-naphthyridin-4(1H)-one]	0.013 µM
Cc1cc(=O)c2c(OCCOCCOCCOCCO)ncc(Cl)c2n1-c1c(Cl)cc(F)cc1C#N [Example 23, 3-chloro-2-(8-chloro-5-(2-(2-(2-(2-hydroxyethoxy)ethoxy)ethoxy)ethoxy)-2-methyl-4-oxo-1,6-naphthyridin-1(4H)-yl)-5-fluorobenzonitrile]	0.344 µM
Cc1cc(=O)c2c(NCCOCCOCCOCCO)ncc(Cl)c2n1-c1c(Cl)cccc1C#N [Example 16, 3-chloro-2-(8-chloro-5-((2-(2-(2-(2-hydroxyethoxy)ethoxy)ethoxy)ethyl)amino)-2-methyl-4-oxo-1,6-naphthyridin-1(4H)-yl)benzonitrile]	0.176 µM
Cc1cc(=O)c2c(OCCO)ncc(Cl)c2n1-c1c(Cl)cccc1Cl [Example 48, 8-chloro-1-(2,6-dichlorophenyl)-5-(2-hydroxyethoxy)-2-methyl-1,6-naphthyridin-4(1H)-one]	0.009 µM
Cc1cc(=O)c2c(CC(O)CO)ncc(Cl)c2n1-c1c(Cl)cccc1Cl (centres unmarked) [Example 81, 8-Chloro-1-(2,6-dichlorophenyl)-5-(2,3-dihydroxpropyl)-2-methyl-1,6-naphthyridin-4(1H)-one]	0.023 µM
O=c1cc(CO)n(-c2c(Cl)cccc2Cl)c2c(Cl)cnc(OCCOCCOCCOCCO)c12 [Example 7, 8-chloro-1-(2,6-dichlorophenyl)-5-(2-(2-(2-(2-hydroxyethoxy)ethoxy)ethoxy)ethoxy)-2-(hydroxymethyl)-1,6-naphthyridin-4(1H)-one]	0.431 µM
CCc1cc2c(c(OCC(O)CO)n1)c(=O)cc(C)n2-c1c(Cl)cccc1Cl (centres unmarked) [Example 66, 1-(2,6-Dichlorophenyl)-5-(2,3-dihydroxpropoxy)-7-ethyl-2-methyl-1,6-naphthyridin-4(1H)-one]	0.034 µM
Cc1cc(=O)c2c(NOCCO)ncc(Cl)c2n1-c1c(Cl)cccc1Cl [Example 49, 8-chloro-1-(2,6-dichlorophenyl)-5-((2-hydroxyethoxy)amino)-2-methyl-1,6-naphthyridin-4(1H)-one]	0.042 µM
Cc1cc(=O)c2c(OCCOCCOCCOCCOCCOCCO)ncc(Cl)c2n1-c1c(Cl)cc(F)cc1Cl [Example 24, 8-chloro-1-(2,6-dichloro-4-fluorophenyl)-5-((17-hydroxy-3,6,9,12,15-pentaoxaheptadecyl)oxy)-2-methyl-1,6-naphthyridin-4(1H)-one]	0.253 µM
Cc1cc(=O)c2c(OCCOCCOCCOCCO)ncc(Cl)c2n1-c1c(Cl)cccc1Cl [Example 30, 8-chloro-1-(2,6-dichlorophenyl)-5-(2-(2-(2-(2-hydroxyethoxy)ethoxy)ethoxy)ethoxy)-2-methyl-1,6-naphthyridin-4(1H)-one]	0.025 µM
O=c1cc(CO)n(-c2c(Cl)cccc2Cl)c2c(Cl)cnc(CCC(O)CO)c12 (single isomer, unassigned) [Example 76, 8-chloro-1-(2,6-dichlorophenyl)-5-(3,4-dihydroxybutyl)-2-(hydroxymethyl)-1,6-naphthyridin-4(1H)-one]	0.355 µM
O=c1cc(CO)n(-c2c(Cl)cccc2Cl)c2c(Cl)cnc(COC(CO)CO)c12 [Example 88, 8-Chloro-1-(2,6-dichlorophenyl)-5-(((1,3-dihydroxypropan-2-yl)oxy)methyl)-2-(hydroxymethyl)-1,6-naphthyridin-4(1H)-one]	1.23 µM
Cc1cc(=O)c2c(OCCOCCOCCOCCO)ncc(Cl)c2n1-c1c(Cl)cccc1C#N [Example 21, 3-chloro-2-(8-chloro-5-(2-(2-(2-(2-hydroxyethoxy)ethoxy)ethoxy)ethoxy)-2-methyl-4-oxo-1,6-naphthyridin-1(4H)-yl)benzonitrile]	0.154 µM
CC1(C)OCC(COc2ncc(Cl)c3c2c(=O)cc(CO)n3-c2c(Cl)cccc2Cl)O1 (centres unmarked) [Example 57, 8-chloro-1-(2,6-dichlorophenyl)-5-((2,2-dimethyl-1,3-dioxolan-4-yl)methoxy)-2-(hydroxymethyl)-1,6-naphthyridin-4(1H)-one]	0.032 µM
Cc1cc(=O)c2c(NCCc3c[nH]cn3)cncc2n1-c1c(Cl)cc(C#N)cc1Cl [Example 56, 4-(5-((2-(1H-imidazol-4-yl)ethyl)amino)-2-methyl-4-oxo-1,7-naphthyridin-1(4H)-yl)-3,5-dichlorobenzontrile]	0.197 µM
O=c1cc(CO)n(-c2c(Cl)cccc2Cl)c2c(Cl)cnc(OCCO)c12 [Example 12, 8-chloro-1-(2,6-dichlorophenyl)-5-(2-hydroxyethoxy)-2-(hydroxymethyl)-1,6-naphthyridin-4(1H)-one]	0.036 µM
Cc1cc(=O)c2c(N[C@@H]3COC[C@H]3O)ncc(Cl)c2n1-c1c(Cl)cc(C#N)cc1Cl [Example 43, 3,5-dichloro-4-(8-chloro-5-(((3R,4S)-4-hydroxytetrahydrofuran-3-yl)amino)-2-methyl-4-oxo-1,6-naphthyridin-1(4H)-yl)benzonitrile]	0.026 µM
Cc1cc(=O)c2c(OCC(O)COCC(O)CO)ncc(Cl)c2n1-c1c(Cl)cccc1Cl (centres unmarked) [Example 20, 8-chloro-1-(2,6-dichlorophenyl)-5-(3-(2,3-dihydroxypropoxy)-2-hydroxypropoxy)-2-methyl-1,6-naphthyridin-4(1H)-one]	0.173 µM

— patent US11530213B2, “Naphthyridinone derivatives and their use in the treatment of arrhythmia” (NOVARTIS AG, priority 2016, dated 2022)
